Test results as given in patent US20240216395A1, “19-NOR C3,3-DISUBSTITUTED C21 -N-PYRAZOLYL STEROID FOR USE IN TREATING MAJOR DEPRESSIVE DISORDER AND […]” (priority 2021, published 2024).
“And” between values parts separate entries of the source, which are not always exact repeats. Equal values may be shown once. Read-outs that look alike come from different tables or passages of the source.

What was measured:
[1] = test system: nondependent, recreational users of CNS depressants; assay: Abuse potential main study, treatment phase: subjective VAS measures (Drug Liking, Overall Drug Liking, Take Drug Again, High, Good/Bad/Any Drug Effects, Alertness/Drowsiness, Drug Similarity)
[2] = Abuse potential main study: plasma pharmacokinetics after a single oral dose; format: in vivo, human; conditions: for Tmax / half-life / AUC(0-t) / Cmax: human, plasma
Description: Safety and tolerability endpoints included the frequency and severity of AEs and SAEs, the change from baseline in clinical laboratory assessments, vital signs, and ECG, and suicidality assessed by the Columbia-Suicide Severity Rating Scale (C-SSRS).
During the treatment phase, PK measures were assessed predose and at multiple time points, from 0.5 to 24 hours after dosing. Blood samples collected for plasma analyses were kept frozen (approximately −70° C. to −80° C.) until analysis. The quantification of the Compound (1) plasma concentration was performed by a bioanalytical laboratory (PRA Health Sciences, Lenexa, Kansas) using a validated liquid chromatography with a tandem mass spectroscopic method. The validated range of the assay was 1.00 to 500 ng/ml.
All PK analyses were based on the PK analysis set. Descriptive statistics included sample size, arithmetic mean, standard deviation, arithmetic coefficient of variation (CV), first quartile, median, and the minimum and maximum values […]. For summary statistics, PK concentration values below the limit of quantification were treated as zero. For calculating PK parameters, PK concentration values of zero that occurred prior to or after the first quantifiable concentration were imputed as zero or missing, respectively. The Compound (1) plasma PK parameters were estimated for each participant using noncompartmental analysis (Phoenix® WinNonlin® version 8.0 or later). The estimation of the terminal-elimination rate constant (λz) and λz-derived PK parameters were dependent upon inspection of PK data and a minimum of three time points in the terminal phase with adjusted R2 ≥0.8.

[3] = test system: adult subjects with major depressive disorder (MDD); assay: Phase 3 MDD study (NCT04442490): safety and tolerability (TEAEs, C-SSRS, PWC-20); format: in vivo, human
Description: • Incidence and severity of adverse events/serious adverse events • Changes from baseline in clinical laboratory measures, vital signs, and electrocardiograms (ECGs) • Suicidal ideation and behavior using the Columbia Suicide Severity Rating Scale (C-SSRS) • Potential withdrawal symptoms using the 20-item Physician Withdrawal Checklist (PWC-20)
Safety and tolerability of study drug was evaluated by incidence of adverse events/serious adverse events, vital signs, clinical laboratory evaluations, and 12-lead ECG.
Suicidality was monitored by the C-SSRS. Potential withdrawal symptoms after discontinuation of Compound (1) was assessed using the PWC-20.
Safety and tolerability were evaluated by incidence and severity of adverse events (AEs), serious adverse events (SAEs), changes from baseline in clinical laboratory evaluations, vital signs, and 12-lead electrocardiography. Suicidality was monitored by the Columbia Suicide Severity Rating Scale (C-SSRS). The Physician Withdrawal Checklist-20 total score (PWC-20TS) was used to monitor for the presence of potential withdrawal symptoms following discontinuation of Compound (1)-50 mg.

[4] = Alprazolam 1.5 mg - Compound (1) 30 mg
[5] = Alprazolam 1.5 mg - Compound (1) 30 mg (relative abuse potential)
[6] = Alprazolam 1.5 mg - Compound (1) 60 mg
[7] = Alprazolam 1.5 mg - Compound (1) 60 mg (relative abuse potential)
[8] = Alprazolam 1.5 mg - Compound (1) 90 mg
[9] = Alprazolam 1.5 mg - Compound (1) 90 mg (relative abuse potential)
[10] = Alprazolam 3 mg - Compound (1) 30 mg
[11] = Alprazolam 3 mg - Compound (1) 30 mg (relative abuse potential)
[12] = Alprazolam 3 mg - Compound (1) 60 mg
[13] = Alprazolam 3 mg - Compound (1) 60 mg (relative abuse potential)
[14] = Alprazolam 3 mg - Compound (1) 90 mg
[15] = Alprazolam 3 mg - Compound (1) 90 mg (relative abuse potential)
[16] = Compound (1) 30 mg - placebo (absolute abuse potential)
[17] = Compound (1) 60 mg - placebo (absolute abuse potential)
[18] = Compound (1) 90 mg - placebo (absolute abuse potential)
[19] = 50 mg (n = 268), through Day 42

C[C@@]1(O)CC[C@H]2[C@H](CC[C@@H]3[C@@H]2CC[C@]2(C)[C@@H](C(=O)Cn4cc(C#N)cn4)CC[C@@H]32)C1 [Compound (1), 1-(2-((3R,5R,8R,9R,10S,13S,14S,17S)-3-hydroxy-3,13-dimethylhexadecahydro-1H-cyclopenta[a]phenanthren-17-yl)-2-oxoethyl)-1H-pyrazole-4-carbonitrile]
Alert/Drowsiness VAS: time scores remained below neutral value of 50 ([1]; 30 mg): 6-7 hours postdose
Alert/Drowsiness VAS: time scores remained below neutral value of 50 ([1]; 60 and 90 mg): 8-10 hours postdose
Drug Liking Emax difference [1, 4]: 12.50
Overall Drug Liking Emax difference [1, 4]: 13.92
Take Drug Again Emax difference [1, 4]: 13.67
Bad Drug Effects Emax difference [1, 5]: 0
Good Drug Effects Emax difference [1, 5]: 24.62
High Effects Emax difference [1, 5]: 24.59
Drug Liking Emax difference [1, 6]: 2.00
Overall Drug Liking Emax difference [1, 6]: 5.63
Take Drug Again Emax difference [1, 6]: 0
Bad Drug Effects Emax difference [1, 7]: 0
Good Drug Effects Emax difference [1, 7]: 0.00
High Effects Emax difference [1, 7]: 7.57
Drug Liking Emax difference [1, 8]: −3.55
Overall Drug Liking Emax difference [1, 8]: 1.12
Take Drug Again Emax difference [1, 8]: 0
Bad Drug Effects Emax difference [1, 9]: −12.93
Good Drug Effects Emax difference [1, 9]: −12.00
High Effects Emax difference [1, 9]: −12.00
Drug Liking Emax difference [1, 10]: 14.00
Overall Drug Liking Emax difference [1, 10]: 14.62
Take Drug Again Emax difference [1, 10]: 16.43
Bad Drug Effects Emax difference [1, 11]: 1.00
Good Drug Effects Emax difference [1, 11]: 33.48
High Effects Emax difference [1, 11]: 32.45
Drug Liking Emax difference [1, 12]: 2.50
Overall Drug Liking Emax difference [1, 12]: 6.33
Take Drug Again Emax difference [1, 12]: 7.15
Bad Drug Effects Emax difference [1, 13]: 1.00
Good Drug Effects Emax difference [1, 13]: 7.50
High Effects Emax difference [1, 13]: 15.42
Drug Liking Emax difference [1, 14]: 0.00
Overall Drug Liking Emax difference [1, 14]: 1.82
Take Drug Again Emax difference [1, 14]: 0
Bad Drug Effects Emax difference [1, 15]: −1.82
Good Drug Effects Emax difference [1, 15]: −1.00
High Effects Emax difference [1, 15]: −4.14
Drug Liking Emax difference ([1]; Compound (1) 30 mg - placebo): 12.00
Overall Drug Liking Emax difference ([1]; Compound (1) 30 mg - placebo): 6.50
Take Drug Again Emax difference ([1]; Compound (1) 30 mg - placebo): 9.00
Bad Drug Effects Emax difference [1, 16]: 0
Good Drug Effects Emax difference [1, 16]: 19.98
High Effects Emax difference [1, 16]: 19.21
Drug Liking Emax difference ([1]; Compound (1) 60 mg - placebo): 18.12
Overall Drug Liking Emax difference ([1]; Compound (1) 60 mg - placebo): 16.75
Take Drug Again Emax difference ([1]; Compound (1) 60 mg - placebo): 18.57
Bad Drug Effects Emax difference [1, 17]: 0
Good Drug Effects Emax difference [1, 17]: 40.53
High Effects Emax difference [1, 17]: 36.23
Drug Similarity: Benzodiazepines Similarity median score ([1]; Compound (1) 90 mg): 92.5
Drug Similarity: Opioids Similarity median score ([1]; Compound (1) 90 mg): 39.0
Drug Liking Emax difference ([1]; Compound (1) 90 mg - placebo): 25.00
Overall Drug Liking Emax difference ([1]; Compound (1) 90 mg - placebo): 21.27
Take Drug Again Emax difference ([1]; Compound (1) 90 mg - placebo): 24.50
Bad Drug Effects Emax difference [1, 18]: 0
Good Drug Effects Emax difference [1, 18]: 59.00
High Effects Emax difference [1, 18]: 55.80
Drug Similarity: Placebo Similarity median score ([1]; all dosages, 12 hours postdose): zero
AUC0-24, geometric mean ([2]; 60 mg single oral dose): 982 ng·h/mL
T½ values, range over doses ([2]; 30, 60, 90 mg, capsule): 10 to 11 h
Tmax ([2]; oral, 90 mg, 30, 60, 90 mg, capsule, read-out: Tmax (median), all three doses): 5.1 h
half-life ([2]; oral, 90 mg, 30, 60, 90 mg, capsule, read-out: T½ values, range over doses): 9.92 to 10.9 h
AUC(0-t) ([2]; oral, 30, 60, 90 mg, read-out: AUC0-24 values, range over doses): 520 to 1330 ng·h/mL
Cmax ([2]; oral, 30, 60, 90 mg, read-out: Cmax geometric mean values, range over doses): 55.5 to 123 ng/mL
half-life ([2]; po, 30 mg, 30 mg single oral dose (n = 66), read-out: T½, geometric mean (converted)): 10.1 h
Tmax ([2]; po, 30 mg, 30 mg single oral dose, read-out: Tmax, median): 5.1 h
half-life ([2]; po, 60 mg, 60 mg single oral dose (n = 60), read-out: T½, geometric mean (converted)): 9.9 h
Tmax ([2]; po, 60 mg, 60 mg single oral dose, read-out: Tmax, median): 5.1 h
half-life ([2]; po, 90 mg, 90 mg single oral dose (n = 62), read-out: T½, geometric mean (converted)): 10.9 h
Tmax ([2]; po, 90 mg, 90 mg single oral dose, read-out: Tmax, median): 5.1 h
Cmax ([2]; 30 mg single oral dose (n = 65), read-out: Cmax, geometric mean): 55.5 ng/mL
AUC(0-t) ([2]; 30 mg single oral dose, read-out: AUC0-24, geometric mean): 520 ng·h/mL
Cmax ([2]; 60 mg single oral dose (n = 66), read-out: Cmax, geometric mean): 97.6 ng/mL
Cmax ([2]; 90 mg single oral dose (n = 67), read-out: Cmax, geometric mean): 123 ng/mL
AUC(0-t) ([2]; 90 mg single oral dose, read-out: AUC0-24, geometric mean): 1330 ng·h/mL
AEs of loss of consciousness, weight gain, sexual dysfunction, euphoria ([3]; 50 mg): no loss of consciousness, weight gain, sexual dysfunction, or euphoria reported
Overall tolerability ([3]; 50 mg): generally well-tolerated
TEAE Alanine aminotransferase increased [3, 19]: 3 (1.1%) n (%)
TEAE Dry mouth [3, 19]: 10 (3.7%) n (%)
TEAE Tremor [3, 19]: 8 (3.0%) n (%)
Any TEAE ([3]; 50 mg, ADT use at baseline=Yes (N = 79)): 50 (63.3) n (%)
TEAE Abnormal dreams ([3]; 50 mg, ADT=Yes (N = 79)): 2 (2.5) n (%)
TEAE Alanine aminotransferase increased ([3]; 50 mg, ADT=Yes (N = 79)): 2 (2.5) n (%)
TEAE Diarrhea ([3]; 50 mg, ADT=Yes (N = 79)): 4 (5.1) n (%)
TEAE Disturbance in attention ([3]; 50 mg, ADT=Yes (N = 79)): 0 n (%)
TEAE Dizziness ([3]; 50 mg, ADT=Yes (N = 79)): 10 (12.7) n (%)
TEAE Dry mouth ([3]; 50 mg, ADT=Yes (N = 79)): 4 (5.1) n (%)
TEAE Flatulence ([3]; 50 mg, ADT=Yes (N = 79)): 0 n (%)
TEAE Gastroenteritis ([3]; 50 mg, ADT=Yes (N = 79)): 2 (2.5) n (%)
TEAE Headache ([3]; 50 mg, ADT=Yes (N = 79)): 9 (11.4) n (%)
TEAE Insomnia ([3]; 50 mg, ADT=Yes (N = 79)): 2 (2.5) n (%)
TEAE Nausea ([3]; 50 mg, ADT=Yes (N = 79)): 1 (1.3) n (%)
TEAE Restlessness ([3]; 50 mg, ADT=Yes (N = 79)): 2 (2.5) n (%)
TEAE Sedation ([3]; 50 mg, ADT=Yes (N = 79)): 7 (8.9) n (%)
TEAE Somnolence ([3]; 50 mg, ADT=Yes (N = 79)): 9 (11.4) n (%)
TEAE Suicidal ideation ([3]; 50 mg, ADT=Yes (N = 79)): 3 (3.8) n (%)
TEAE Tremor ([3]; 50 mg, ADT=Yes (N = 79)): 3 (3.8) n (%)
TEAE Upper respiratory tract infection ([3]; 50 mg, ADT=Yes (N = 79)): 2 (2.5) n (%)
TEAE Urinary tract infection ([3]; 50 mg, ADT=Yes (N = 79)): 2 (2.5) n (%)
C-SSRS: No suicidal ideation/behavior ([3]; 50 mg, Day 8 (N = 255)): 237 (92.9) n (%)
C-SSRS: Suicidal behavior ([3]; 50 mg, Day 8 (N = 255)): 0 n (%)
C-SSRS: Suicidal ideation ([3]; 50 mg, Day 8 (N = 255)): 18 (7.1) n (%)
C-SSRS: No suicidal ideation/behavior ([3]; 50 mg, Day 15 (N = 248)): 229 (92.3) n (%)
C-SSRS: Suicidal behavior ([3]; 50 mg, Day 15 (N = 248)): 0 n (%)
C-SSRS: Suicidal ideation ([3]; 50 mg, Day 15 (N = 248)): 19 (7.7) n (%)
PWC-20 total score change from first assessment (CFFA), mean (SD) ([3]; 50 mg, Day 18): −1.2 (4.3) and −1.2 (4.32)
Withdrawal symptoms by PWC-20 ([3]; 50 mg, Day 18 or 21): No signals for withdrawal symptoms
PWC-20 total score change from first assessment (CFFA), mean (SD) ([3]; 50 mg, Day 21): −0.3 (4.6) and −0.3 (4.37)
C-SSRS: No suicidal ideation/behavior ([3]; 50 mg, Day 42 (N = 240)): 223 (92.9) n (%)
C-SSRS: Suicidal behavior ([3]; 50 mg, Day 42 (N = 240)): 0 n (%)
C-SSRS: Suicidal ideation ([3]; 50 mg, Day 42 (N = 240)): 17 (7.1) n (%)
Suicidal ideation/behavior signal by C-SSRS ([3]; 50 mg, throughout the study): No signal of increased suicidal ideation/behavior
Patients with a TEAE whose TEAEs were mild and moderate in severity ([3]; clinical trial of Example 1): 95.0%
